# Results taken from article PMC3072408 (PLoS ONE, 2011).
# “Also recorded” adds a separate entry of the source.
# T1: ASAL (Allium sativum, UniProt P83886)
# T1 construct: gene LECASAL; native 25-kDa homodimer
# T1 sequence (P83886 31-140): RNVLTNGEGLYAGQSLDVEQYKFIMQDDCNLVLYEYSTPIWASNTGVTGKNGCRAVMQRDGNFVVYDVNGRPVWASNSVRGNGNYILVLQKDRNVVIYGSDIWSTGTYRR
# Key:
# [1] = biological target: T2, mASAL (Allium sativum, UniProt P83886, G129D/INS129NSNN); experiment: biochemical
# T2 construct: gene LECASAL
# Description: Dissociation Constant (Kd) of mannose-bound complex using fluorescence spectroscopy
# mASAL and ASAL were separately incubated at 25°C on a Hitachi F-7000 spectrofluorimeter using a Sigma cuvette (volume: 1 ml; pathlength: 1 cm). The solutions were titrated with 10 mM mannose in phosphate buffer (pH 7.2) by adding a small aliquot at a time. Following each addition, the solution was stirred using a magnetic stirrer for 1 min and the fluorescence emission spectrum was recorded between 300 and 400 nm using 295 nm as the excitation wavelength. The excitation and emission band passes were each 5 nm. […] The equation for single-site ligand binding measured through changes in the spectroscopic signal [20] is given by [drawing 1] (1) where ΔF represents the increase or decrease in fluorescence intensity at a given concentration of the ligand, K d is the dissociation constant, and A = K dΔ Fmax. We used equation (1) to calculate the dissociation constant (K d) for binding of mannose, glucose and NAG to mASAL and ASAL.
# [2] = biological target: T1, ASAL; assay type: binding; conditions: read-out: Dissociation constant (Kd)
# [3] = Man9GlcNAc2Asn, at 25°C; cited from earlier work
# [4] = system: R. solani; conditions: 4 µg protein, 40 hours at 25°C
# [5] = system: A. brassicicola; conditions: 4 µg protein, 40 hours at 25°C
# [6] = system: rabbit erythrocytes; experiment: Hemagglutination assay; assay type: cell-based; conditions: 50 to 6.25 µg/ml, 2% rabbit erythrocytes, 1 hour at 37°C
# Description: Blood was collected from the rabbit into a syringe pre-filled with 500-µl 0.9% NaCl solution and the blood was immediately transferred to a culture tube pre-filled with 0.9% saline. Subsequently, the erythrocyte solution was prepared by repeated washing with 0.9% saline and spun at 2500 g for 10 minutes at 4°C. After each cycle, the supernatant was carefully removed. […] The erythrocytes were resuspended in 0.9% saline as a 2% (3.5×10^8 cells/ml) cell suspension. Hemagglutination activity of the purified mASAL and /or ASAL was assayed in a 96-well microtiter U-plate according to a 2-fold serial dilution procedure (50, 25, 12.5, 6.25 µg/ml). The samples were diluted with PBS (137 mM NaCl, 2.7 mM KCl, 10 mM Na2HPO4, 1.8 mM KH2PO4; pH 7.4) at which point 50 µl of protein from each dilution was mixed with 50 µl of a 2% suspension of rabbit erythrocytes.
# [7] = system: F. oxysporum; conditions: 4 µg protein, 40 hours at 25°C
# [8] = system: Lipaphis erysimi; experiment: Insect bioassay with artificial diet; assay type: in vivo; conditions: second instar nymphs, survival recorded for 72 h, Probit analysis
# Description: Insect bioassays were conducted using an artificial diet [9]–[11]. Twenty second instar nymphs of Lipaphis erysimi were used in multiple sets. Polycarbonate petriplates (perforated for air passage at the bottom) were used as a bioassay cage. Nymphs were released into the plates, and the upper edges of the plates were covered with fully stretched parafilm. A modified synthetic diet mixture of 200 µl, supplemented with different concentrations of ASAL and mASAL (5, 10, 15, 20, 25 µg/ml), was dispensed on the stretched parafilm membrane. Another Parafilm membrane was stretched onto this in order to form a pouch. For control plates, 20-mM TrisCl (pH 7.4) was added to the artificial diet instead of experimental proteins. For another set of control experiments, aphids were fed with only 20 mM TrisCl (pH 7.4) without the artificial diet. Each set of experiments for each dose was repeated four times. Data regarding the numbers of nymphs surviving were recorded at 12-h intervals for 72 h. The LC50 values for the toxicity against mustard aphids were determined by Probit analysis ( Table 2 ).
# [9] = system: R. solani hyphae; experiment: Immunolocalization assay with anti-ASAL antibody; assay type: cell-based, Rhizoctonia solani; conditions: 4 µg protein, 40 hours at 25°C
# [10] = biological target: the molecule itself; experiment: SEC; Biosep-SEC-S-2000 column, 0.1 M sodium phosphate pH 6.8, 2 ml/min; native ASAL as control; data not shown
molecule,measurement,setting,value
OC[C@H]1OC(O)[C@H](O)[C@@H](O)[C@@H]1O (stereo partly drawn) [D-glucose],Kd,[1],160 nM
same,Kd,[2],140 nM
"OC[C@H]1OC(O)[C@@H](O)[C@@H](O)[C@@H]1O (stereo partly drawn) [Mannose, D-mannose]",Kd,[1],120 nM
same,Kd,[2],60 nM
"CC(=O)N[C@H]1C(O)O[C@H](CO)[C@@H](O)[C@@H]1O (some centres unmarked) [NAG, N-acetyl glucosamine]",Kd,[1],110 nM
same,Kd,[2],300 nM
Allium sativum leaf agglutinin [ASAL],binding affinity Ka,[3],1.2e+06 M⁻¹
same,"propidium iodide uptake (fluorescence, membrane permeabilization)",[4],excluded propidium iodide
same,"propidium iodide uptake (fluorescence, membrane permeabilization)",[5],excluded propidium iodide
same,hemagglutination activity,[6],agglutinated cells form a carpet
same,"propidium iodide uptake (fluorescence, membrane permeabilization)",[7],excluded propidium iodide
same,LC50 value,[8],20.7 µg/mL
same,binding to fungal membrane (FITC green fluorescence),[9],absence of any signal; also recorded: no signals were generated
Allium sativum leaf agglutinin (natural protein) RNLLTNGEGLYAGQSLDVEQYKFIMQDDCNLVLYEYSTPIWASNTGVTGKNGCRAVMQRDGNFVVYDVNGRPVWASNSVRGNGNYILVLQKDRNVVIYGSDIWSTGT,stoichiometry N,[10],2
